The values that follow come from patent US9079821B2, “Quinone based nitric oxide donating compounds” (NICOX S.A., priority 2011, dated 2015).

Data set [1] is described as follows: Pharmacokinetic profile in mice (blood 15N-nitrite levels). The format is in vivo. Particulars: CD1 mice. How it is done:
(§1) The absorption and in vivo NO-donating property of the compounds of the invention were assessed by the evaluation of blood ^15N-nitrite levels following oral administration.
Tested Compounds: • 10-(4,5-dimethoxy-2-methyl-3,6-dioxocyclohexa-1,4-dienyl)decyl nitrate-nitrogen-15 which correspond to compound (6) containing nitrogen-15 (^15N-Compound (6)); • 5-isorbide mononitrate containing nitrogen-15 (5-ISM^15N)
Male CD1 mice (n=3/time point) were orally treated with ^15N-Compound (6) at 100 mg/kg or 5-ISM^15N (30 mg/kg). At each time point (5, 10, 15, 30, 60, 120, 240, 360, 480 and 1440 min) blood was taken by cardiac puncture using heparin to avoid blood clotting. Blood samples were immediately protein crushed. Samples were analyzed by LC-MS/MS. ^15N-nitrite levels following oral administration of Compound (6) (100 mg/kg) or 5-ISM^15N (30 mg/kg) in CD1 mice are reported in Table 6.

Data set [2] can be described thus: Pharmacokinetic profile in rats (blood 15N-nitrite levels). The format is in vivo, rat. Particulars: rat, in vivo, po, 30 mg/kg. As for the experimental part: as §1
Tested Compounds: • 5-(2,4,5-trimethyl-3,6-dioxocyclohexa-1,4-dienylpentyl nitrate-nitrogen-15 which corresponds to compound (1) containing nitrogen-15 (^15N-Compound (1)); • 5-(4,5-dimethoxy-2-methyl-3,6-dioxocyclohexa-1,4-dienyl)pentyl nitrate-nitrogen-15 which corresponds to compound (2) containing nitrogen-15 (^15N-Compound (2)); • 4-(2,4,5-trimethyl-3,6-dioxocyclohexa-1,4-dienyl)butyl nitrate-nitrogen-15 which corresponds to compound (3) containing nitrogen-15 (^15N-Compound (3)); • 4-(4,5-dimethoxy-2-methyl-3,6-dioxocyclohexa-1,4-dienyl)butyl nitrate-nitrogen-15 which corresponds to compound (4) containing nitrogen-15 (^15N-Compound (4)); • 10-(2,4,5-trimethyl-3,6-dioxocyclohexa-1,4-dienyl)decyl nitrate-nitrogen-15 which corresponds to compound (5) containing nitrogen-15 (^15N-Compound (5)); • 10-(4,5-dimethoxy-2-methyl-3,6-dioxocyclohexa-1,4-dienyl)decyl nitrate-nitrogen-15 which corresponds to compound (6) containing nitrogen-15 (^15N-Compound (6)); • 3-(3-(4,5-dimethoxy-2-methyl-3,6-dioxocyclohexa-1,4-dienyl)propoxy)propyl nitrate-nitrogen-15 which corresponds to compound (14) containing nitrogen-15 (^15N-Compound (14)); • 6-(2,4,5-trimethyl-3,6-dioxocyclohexa-1,4-dienyl)hexyl nitrate-nitrogen-15 which corresponds to compound (15) containing nitrogen-15 (^15N-Compound (15)); • 6-(4,5-dimethoxy-2-methyl-3,6-dioxocyclohexa-1,4-dienyl)hexyl nitrate-nitrogen-15 which corresponds to compound (16) containing nitrogen-15 (^15N-Compound (16)); • 11-(4,5-dimethoxy-2-methyl-3,6-dioxocyclohexa-1,4-dienyl)-undecane-1,2-diyl dinitrate-nitrogen-15 which corresponds to compound (17) containing nitrogen-15 (^15N-Compound (17)); • 8-(5-methoxy-2,4-dimethyl-3,6-dioxocyclohexa-1,4-dienyl)octyl nitrate-nitrogen—which corresponds to compound (19) containing nitrogen-15 (^15N-Compound (19)); • 2-(3-(4,5-dimethoxy-2-methyl-3,6-dioxocyclohexa-1,4-dienyl)propoxy)ethyl nitrate-nitrogen-15 which corresponds to compound (20) containing nitrogen-15 (^15N-Compound (20)); • 6-(3-methyl-1,4-dioxo-1,4-dihydronaphthalen-2-yl)hexyl nitrate-nitrogen-15 which corresponds to compound (23) containing nitrogen-15 (^15N-Compound (23)); • 3-(3-(3-methyl-1,4-dioxo-1,4-dihydronaphthalen-2-yl)propoxy)propyl nitrate-nitrogen-15 which corresponds to compound (25) containing nitrogen-15 (^15N-Compound (25)); • 6-(5-methoxy-2,4-dimethyl-3,6-dioxocyclohexa-1,4-dienyl)hexyl nitrate-nitrogen-15 which corresponds to compound (28) containing nitrogen-15 (^15N-Compound (28)); • 6-(4-methoxy-2,5-dimethyl-3,6-dioxocyclohexa-1,4-dienyl)hexyl nitrate-nitrogen-15 which corresponds to compound (29) containing nitrogen-15 (^15N-Compound (29)); • 8-(4-methoxy-2,5-dimethyl-3,6-dioxocyclohexa-1,4-dienyl)octyl nitrate-nitrogen-15 which corresponds to compound (32) containing nitrogen-15 (^15N-Compound (32)); • 8-(2,4,5-trimethyl-3,6-dioxocyclohexa-1,4-dienyl)octyl nitrate-nitrogen-15 which corresponds to compound (34) containing nitrogen-15 (^15N-Compound (34)); • 5-isorbide mononitrate containing nitrogen-15 (5-ISM^15N).
(§2) Cannulated SD rats were orally treated with ^15N-Compounds (6) at 30 mg/kg, 5-ISM^15N (30 mg/kg), or ^15N-Compounds (1)-(5), 14)-(17), (19), (20), (23), (25), (28), (29), (32), (34) at 30 mg/kg. At each time point (5, 10, 15, 30, 60, 180, 360 and 1440 min) blood was taken using heparin to avoid blood clotting. Blood samples were immediately protein crushed. Samples were analyzed by LC-MS/MS.
In Table 7 are reported ^15N-nitrite blood levels following oral administration of SD rats with 5-ISM^15N (30 mg/kg) or with ^15N-labeled corresponding compounds of the invention (30 mg/kg).

In data set [3] the test system is rat L-NAME-induced hypertension. Briefly: Rat L-NAME-induced hypertension, systolic blood pressure after single oral dose. The format is in vivo. Particulars: for Delta vs basal (mmHg): 5-ISMN 30 mg/kg oral, L-NAME 50 mg/kg i.p. As for the experimental part: To assess the in vivo NO-dependent activity, Compound (6) was evaluated for systolic blood pressure (SBP) reduction efficacy in a rat model of NO-deprivation induced by L-NAME and compared with 5-ISMN.
(§3) Fasted male SD rats (250-300 g, n=3-5 per group), obtained from Harlan Italy (Correzzana, Milan, Italy) were orally treated with tested compounds or vehicle (DMSO:Methocel 1% 2/98 v/v) in a total volume of 4 ml/kg by gavage. At each time point (1, 3, 6 and 24 h) animals were deeply anesthetized with Zoletil® 100 (3 mg/kg), given intramuscularly. Thereafter, a pressure catheter (Samba Sensors, Harvard Apparatus, UK) was introduced into the common carotid artery for central blood pressure measurement. Pressure transducer was connected to a personal computer, in order to allow real time monitor of the pressure tracing. After 10 minutes of basal recording, L-NAME (50 mg/kg) was administered intraperitoneally and the effect on SBP monitored. When the SBP stabilized (5 minutes without variations) the recording was stopped. To further confirm that functional activity was NO-dependent, at each time point blood ^15N-nitrite levels were measured following the procedure described in Example 12.

The nature of data set [4]: Blood 15N-nitrite levels in the rat L-NAME-induced hypertension study. The format is in vivo. Particulars: 5-ISMN 30 mg/kg oral. As for the experimental part:
as §3, §2

Data set [5] deals with rat L-NAME-induced hypertension. As to the kind of experiment: In vivo tolerance evaluation (L-NAME-induced hypertension after 5-day oral treatment). The note with it: for Delta vs basal (mmHg): peak effect 1 hour. As for the experimental part:
as §3
To investigate whether the compound (6) induced nitrate tolerance, as observed for most of the drugs belonging to the nitrate class, the L-NAME-induced hypertension rat model described in Example 7 was performed following a repeated oral treatment. Rats were orally treated for 5 days with vehicle, compound (6) (100 mg/kg) or 5-ISMN (30 mg/kg). […] The experiments were performed at the peak effect (1 hour for 5-ISMN and 3 hours for Compound (6)), results are reported in Table 3.

Data set [6] concerns isolated aortas from rats. As to the kind of experiment: Ex vivo tolerance evaluation (vascular response of isolated aortas from treated rats). In kind it is in vivo, rat. The note with it: for EC50: vascular response to 5-ISMN, 1 h after last administration. How it is done: (§4) Thoracic aortas from male New Zealand rabbits or male Sprague Dawley (SD) were used. The aortas were placed immediately in Krebs-HEPES buffer (pH 7.4; composition mM: NaCl 130.0, KCl 3.7, NaHCO3 14.9, KH2PO4 1.2, MgSO4.7H2O 1.2, Glucose 11.0, HEPES 10.0, CaCl2.2H2O 1.6). Connective tissue was removed and aortas were cut into ring segments (4-5 mm in length). Each ring was placed in a 5 mL tissue bath filled with Krebs-HEPES buffer (37° C.) aerated with 95% O2 and 5% CO2 and was attached to a force transducer (Grass FT03), connected to a BIOPAC MP150 System for measurement of the isometric tension. Preparations were allowed to equilibrate for 1 h at a resting tension of 2 g for rabbit aortas and 1 g for rat aortas with changes of the buffer every 15 min. Then the rings were stimulated by exposure to 90 mM KCl (3 times) with intervening washings.
(§5) Rat aorta. After equilibration, rat aortas were precontracted with KCl (90 mM) and, when the contraction was stable, a cumulative concentration-response curve to acetylcholine (ACh, 0.01-100 μM) was added. After washout, the rings were precontracted again with KCl (90 mM). When a steady-state level of contraction was obtained, a cumulative concentration-response curve to the tested compounds (0.01-100 μM) was obtained.
(§6) Data analysis. Results are given as mean±SEM. Vascular responses are expressed as percentage relaxation and plotted vs concentration. The sensitivity of isolated aorta to different vasodilators is expressed as the concentration that elicited 50% of the maximal responses (EC50). Responses are quantified in terms of EC50 and Emax (maximal vasodilating effect) values, obtained from the concentration-response curve by nonlinear curve fitting, using GraphPad software.
Tolerance to nitrate was further investigated assessing the vascular effects of Compound (6) following repeated treatment compared with 5-ISMN. The vascular response to the compound itself was assessed on isolated aortas from rats orally treated for 5 days with Compound (6) (100 mg/kg). The vascular response was performed as described in Example 6.
Vascular responses were performed 1 h (ISMN) or 3 h (Compound (6)) after the last administration, the concentrations of tested compound that elicited the 50% of the maximal responses (EC50) are shown in Table 4.

Data set [7] relates to rat aorta, endothelial-dependent vasodilation (response to ACh). Briefly: Endothelial dysfunction evaluation (vascular response to acetylcholine after treatment). In kind it is in vivo. Particulars: for % relaxation (Emax): response to ACh. As for the experimental part:
as §4, §5, §6
Endothelial-dependent vasodilation (vascular response to acetylcholine, ACh) was assessed following 5-day treatment with Compound (6) (100 mg/kg) or 5-ISMN (30 mg/kg). A relaxant response to ACh indicated the presence of a functional endothelium. The vascular response was performed as described in Example 6.

Structures are written as SMILES.

For `O=[N+]([O-])O[C@@H]1CO[C@H]2[C@@H]1OC[C@@H]2O` [5-ISM^15N, 5-isorbide mononitrate containing nitrogen-15, reference compound], in data set [1] (oral 30 mg/kg), the “15N-nitrite AUC0-24” value came to 2758 µM·min, the “15N-nitrite Tmax” value was determined as 30 min and the Cmax came to 27.5 ± 3 µM. Also, in data set [2], the “15N-nitrite AUC0-24” value came to 7399 µM·min, the “15N-nitrite Tmax” value is reported as 60 min and the Cmax was 20.6 ± 4.2 µM.
As for `O=[N+]([O-])O[C@@H]1CO[C@H]2[C@@H]1OC[C@@H]2O` [Compound 5-ISMN, isosorbide-5-mononitrate, reference compound], the “Delta vs basal (mmHg)” value in data set [3] (1 hour) is reported as 10.5 ± 6.1 mmHg; in data set [3] (3 hours), 6.5 ± 2.4 mmHg; in data set [3] (6 hours), 51.2 ± 5.7 mmHg; in data set [3] (24 hours), 83 ± 9 mmHg; in data set [5] (acute treatment, 5-ISMN 30 mg/kg oral), 10.5 ± 6.1 mmHg; in data set [5] (repeated (5 days) oral treatment, 5-ISMN 30 mg/kg), 88 ± 11.5 mmHg. Also, the “time over which L-NAME induced hypertension was counteracted after treatment” value in data set [3] (5-ISMN 30 mg/kg, single oral administration) was at most 3 h. Also, the “15N-nitrite levels” value in data set [4] (1 hour) came out at 11.0 ± 0.5 µM; in data set [4] (3 hours) it was 8.7 ± 0.7 µM; in data set [4] (6 hours), 6.5 ± 0.5 µM; in data set [4] (24 hours), 0.34 ± 0.06 µM. Besides, in data set [5] (5-ISMN 30 mg/kg oral, 5 days), the “efficacy against L-NAME-induced hypertension after 5-day treatment (nitrate tolerance), in words” value is recorded as “did not maintain its efficacy in preventing L-NAME-induced hypertension”. In data set [6] (5-ISMN 30 mg/kg, repeated treatment), the “vascular response of aortas from treated animals vs control arteries, in words” value is given as “showed a reduced vascular response to 5-ISMN compared to control arteries”. The half-maximal effective concentration (EC50) in data set [6] (acute, aortas of rats given 5-ISMN 30 mg/kg) worked out at 20 ± 0.6 µM; in data set [6] (repeated (5 days oral) 5-ISMN 30 mg/kg), 127 ± 48 µM. In addition, the “effect on endothelial-dependent vasorelaxation, in words” value in data set [7] (5-ISMN 30 mg/kg, 5-day treatment) is “caused a reduced response to Ach”. In addition, the “% relaxation (Emax)” value in data set [7] (acute, 5-ISMN 30 mg/kg) is 92.7 ± 4.3%; in data set [7] (repeated (5-day) 5-ISMN 30 mg/kg), 78.2 ± 9.2%.
On to `COC1=C(OC)C(=O)C(CCCCCCCCCCO[15N+](=O)[O-])=C(C)C1=O` [^15N-Compound (6), 10-(4,5-dimethoxy-2-methyl-3,6-dioxocyclohexa-1,4-dienyl)decyl nitrate-nitrogen-15], for which, in data set [1] (oral 100 mg/kg), the “15N-nitrite AUC0-24” value worked out at 1225 µM·min and the “15N-nitrite Tmax” value is given as 30 min. In data set [2], the “15N-nitrite AUC0-24” value worked out at 2469 µM·min and the “15N-nitrite Tmax” value was found to be 180 min.
Take `COC1=C(OC)C(=O)C(CCCCCCCCCCO[N+](=O)[O-])=C(C)C1=O` [^15N-Compound (6), 10-(4,5-dimethoxy-2-methyl-3,6-dioxocyclohexa-1,4-dienyl)decyl nitrate-nitrogen-15]: the figures for the Cmax in data set [1] (oral 100 mg/kg) and in data set [2] were 3.1 ± 0.3 µM and 2.6 ± 0.2 µM, respectively.
In the case of `CC1=C(C)C(=O)C(CCCCCCCCO[N+](=O)[O-])=C(C)C1=O` [^15N-Compound (34), 8-(2,4,5-trimethyl-3,6-dioxocyclohexa-1,4-dienyl)octyl nitrate-nitrogen-15], the peak level in data set [2] (Cmax) was 2.8 ± 0.25 µM.

A word on the Cmax: it is the peak of the concentration-time curve. The term EC50 denotes the concentration giving half of the maximal effect. Low readings indicate higher potency in that assay, high ones lower potency in that assay.
